The series can be described thus: Drug concentration in plasma of rat after subcutaneous administration of microcapsule. The class given is in vivo. Particulars: sc, 25 mg microcapsule of Example 1, subcutaneous at rear neck, 9 week old male SD rat, plasma from tail vein, n = 4; for concentration at 1 week: after 1 week; for concentration at 2 weeks: after 2 weeks; for concentration at 3 weeks: after 3 weeks; for concentration at 1 day: after 1 day. The method, then:
25 mg of the microcapsule obtained in Example 1 was dispersed in 0.1 mL of dispersing medium (a solution in which 5 mg of sodium carboxymethylcellulose, 1 mg of Polysorbate 80 and 50 mg of mannitol were dissolved in 1 mL of distilled water), and this was subcutaneously administered to a 9 week old male SD rat with 23G injection needle at a rear neck part. The concentrations of drugs in plasma obtained by taking from a tail vein with time after administration were measured.

`CCc1ccc(CCOc2ccc(CC3SC(=O)NC3=O)cc2)nc1` (centres unmarked) [actos] returned a concentration at 1 week of 226 ng/mL, a concentration at 2 weeks of 155 ng/mL, a concentration at 3 weeks of 30 ng/mL and a concentration at 1 day of 313 ng/mL.

`CCOc1nc2cccc(C(=O)O)c2n1Cc1ccc(-c2ccccc2-c2nnn[nH]2)cc1` [Compound B, 2-ethoxy-1-[[2′-(1H-tetrazol-5-yl)biphenyl-4-yl]methyl]benzimidazole-7-carboxylic acid]: the concentration at 1 week was determined as 238 ng/mL, the concentration at 2 weeks amounted to 94 ng/mL, the concentration at 3 weeks amounted to 4 ng/mL and the concentration at 1 day is 170 ng/mL.
